Source: ChEMBL document CHEMBL1201862, “PubChem BioAssay data set” (2004)
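How tested: cells in 96-well plates exposed to compound for 48 hours at five concentrations. GI50 = concentration required for 50% inhibition of growth.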 The source made the active and inactive calls. Rule as the data show it: active = GI50 up to about 1.1 µM and inactive = higher.

Legend:
Experiment in all cases: NCI anticancer screen, dose series, 48 h
786-0 = system: 786-0
COLO 205 = system: COLO 205
HCT-15 = system: HCT-15
HL-60 = system: HL-60
HT-29 = system: HT-29
IGROV-1 = system: IGROV-1
K562 = system: K562
NCI-H226 = system: NCI-H226
NCI-H460 = system: NCI-H460
SK-MEL-28 = system: SK-MEL-28
SK-MEL-2 = system: SK-MEL-2
SN12C = system: SN12C
SNB-75 = system: SNB-75
SR = system: SR
SW-620 = system: SW-620
LOX IMVI = system: LOX IMVI
Malme-3M = system: Malme-3M

Row | Structure (SMILES) | GI50 (786-0) | GI50 (COLO 205) | GI50 (HCT-15) [µM] | GI50 (HL-60) | GI50 (HT-29) | GI50 (IGROV-1) | GI50 (K562) | GI50 (NCI-H226) | GI50 (NCI-H460) | GI50 (SK-MEL-28) | GI50 (SK-MEL-2) | GI50 (SN12C) | GI50 (SNB-75) | GI50 (SR) | GI50 (SW-620) | GI50 (LOX IMVI) | GI50 (Malme-3M)
1 | Cc1cccc(C)c1NC(=O)CCCC(=O)C(C#N)c1ccccc1 (stereo not given) | > 10 µM (inactive) | > 100 µM (inactive) | > 10 | > 100 µM (inactive) | > 10 µM (inactive) | > 100 µM (inactive) | > 100 µM (inactive) | > 100 µM (inactive) | > 10 µM (inactive) | > 100 µM (inactive) | > 100 µM (inactive) | > 10 µM (inactive) | > 100 µM (inactive) | > 100 µM (inactive) | > 100 µM (inactive) |  | 
2 | O=C(CO)C1CC2C=CC1C2 (stereo not given) | > 100 µM (inactive) | > 100 µM (inactive) | > 100 | > 100 µM (inactive) | > 100 µM (inactive) | > 100 µM (inactive) | > 100 µM (inactive) |  | > 100 µM (inactive) | > 100 µM (inactive) | > 100 µM (inactive) | > 100 µM (inactive) | > 100 µM (inactive) |  | > 100 µM (inactive) | > 100 µM (inactive) | > 100 µM (inactive)
3 | O=[N+]([O-])[C@@H]1C2C=CC(C2)[C@H]1Cl (stereo not given in full) | > 100 µM (inactive) | > 100 µM (inactive) | > 100 | > 100 µM (inactive) | > 100 µM (inactive) | > 100 µM (inactive) | > 100 µM (inactive) |  | > 100 µM (inactive) | > 100 µM (inactive) | > 100 µM (inactive) | > 100 µM (inactive) | > 100 µM (inactive) | > 100 µM (inactive) | > 100 µM (inactive) | > 100 µM (inactive) | > 100 µM (inactive)
4 | c1ccc2c(c1)OCCOCCOc1ccccc1OCCO2 | 86.9 µM (inactive) | 50.5 µM (inactive) | 43.9 | 24.8 µM (inactive) | 33.3 µM (inactive) | 71.8 µM (inactive) | 28.4 µM (inactive) | 79.6 µM (inactive) | 36.3 µM (inactive) | > 100 µM (inactive) | 90.4 µM (inactive) | 76 µM (inactive) | 47.1 µM (inactive) |  | 26.9 µM (inactive) | 51.9 µM (inactive) | 33.1 µM (inactive)
5 | COc1ccc2c3c([nH]c2c1[N+](=O)[O-])C(C)N(C)CC3 (stereo not given) | > 100 µM (inactive) | 50.4 µM (inactive) | 80.4 | 39.6 µM (inactive) | 18.9 µM (inactive) | > 100 µM (inactive) | 18.1 µM (inactive) | > 100 µM (inactive) | > 100 µM (inactive) | > 100 µM (inactive) | > 100 µM (inactive) | > 100 µM (inactive) | 72.3 µM (inactive) |  | 29.6 µM (inactive) |  | > 100 µM (inactive)
6 | CCN(CC)/C(=C\Cl)Nc1ccccn1.[O-][Cl+3]([O-])([O-])O | > 100 µM (inactive) | > 100 µM (inactive) | > 100 | > 100 µM (inactive) | > 100 µM (inactive) | > 100 µM (inactive) | > 100 µM (inactive) | > 100 µM (inactive) | > 100 µM (inactive) | > 100 µM (inactive) | > 100 µM (inactive) | > 100 µM (inactive) | > 100 µM (inactive) |  | > 100 µM (inactive) | > 100 µM (inactive) | > 100 µM (inactive)
7 | CCc1cc(C)cc2[n+]1CC=C2C.[O-][Cl+3]([O-])([O-])[O-] | > 100 µM (inactive) | > 100 µM (inactive) |  | 18.2 µM (inactive) | > 100 µM (inactive) |  |  | > 100 µM (inactive) | > 100 µM (inactive) | > 100 µM (inactive) | > 100 µM (inactive) | > 100 µM (inactive) | > 100 µM (inactive) |  | > 100 µM (inactive) | > 100 µM (inactive) | 35 µM (inactive)
8 | S=C(Nc1ccccc1)Nc1ccccc1SC(/C=C/NNC1=NN=C(c2ccccc2)C(c2ccccc2)N1)c1ccccc1 (stereo not given) | 81.5 µM (inactive) | > 100 µM (inactive) | > 100 | 10.4 µM (inactive) | > 100 µM (inactive) | > 100 µM (inactive) | 64.9 µM (inactive) |  | > 100 µM (inactive) | > 100 µM (inactive) | > 100 µM (inactive) | > 100 µM (inactive) |  |  | > 100 µM (inactive) | > 100 µM (inactive) | > 100 µM (inactive)
9 | CCc1cc(CCC(=O)Nc2c(C)cccc2C)n[nH]1 | > 100 µM (inactive) | > 100 µM (inactive) | > 100 | > 100 µM (inactive) | > 100 µM (inactive) | > 100 µM (inactive) | > 100 µM (inactive) | > 100 µM (inactive) | > 100 µM (inactive) | > 100 µM (inactive) | > 100 µM (inactive) | > 100 µM (inactive) | > 100 µM (inactive) | > 100 µM (inactive) | > 100 µM (inactive) |  | > 100 µM (inactive)
10 | CCOC1=C2C(=O)OC(=O)C2C2CCCCC2=C1 (stereo not given) | > 100 µM (inactive) | > 100 µM (inactive) | > 100 | > 100 µM (inactive) | > 100 µM (inactive) | > 100 µM (inactive) | > 100 µM (inactive) |  | > 100 µM (inactive) | > 100 µM (inactive) | > 100 µM (inactive) | > 100 µM (inactive) | > 100 µM (inactive) |  | > 100 µM (inactive) | > 100 µM (inactive) | > 100 µM (inactive)
11 | Cc1ccc(-c2nc3c(C(=O)NCCN(C)C)cccc3[nH]2)cc1 | 24.4 µM (inactive) | 8 µM (inactive) | 13.9 | 14.2 µM (inactive) | 15.5 µM (inactive) | 15.9 µM (inactive) | 13.7 µM (inactive) | 11.9 µM (inactive) | 4.89 µM (inactive) | 18.4 µM (inactive) | 18.5 µM (inactive) | 11.5 µM (inactive) | 18 µM (inactive) |  | 6.27 µM (inactive) | 11.1 µM (inactive) | 
12 | O=C(N/C(=C\c1ccc(/C=C(\NC(=O)c2ccccc2)c2nc3cc(Cl)ccc3[nH]2)cc1)c1nc2cc(Cl)ccc2[nH]1)c1ccccc1 | 25.6 µM (inactive) | 24.3 µM (inactive) | 21.4 |  | 26.3 µM (inactive) | 46 µM (inactive) | 12 µM (inactive) | > 100 µM (inactive) | 29.7 µM (inactive) | 17.5 µM (inactive) | 36.7 µM (inactive) | 30.1 µM (inactive) | 24.4 µM (inactive) |  | 55 µM (inactive) | 25.9 µM (inactive) | 87.9 µM (inactive)
13 | O=C(CSc1nnc[nH]1)C[P+](c1ccccc1)(c1ccccc1)c1ccccc1 | > 100 µM (inactive) | > 100 µM (inactive) | > 100 | 31.7 µM (inactive) |  | > 100 µM (inactive) | 43.4 µM (inactive) |  | 94.4 µM (inactive) | > 100 µM (inactive) | > 100 µM (inactive) | > 100 µM (inactive) | 27.4 µM (inactive) |  | > 100 µM (inactive) | > 100 µM (inactive) | > 100 µM (inactive)
